Results on 2 compounds are retold here after patent US12297438B2, “Gene expression elements and systems and use thereof” (GENENEER LTD., priority 2019, dated 2025).

Where a name gives a salt, the structure may show the parent alone.

Experiment [1] concerns CCR5 expression in ECE included PBMC cells. As to conditions: 50 μM spermin.
Method: Plasmid is transfected in to PBMC cells using standard protocol (lipofectamine) and selected for ECE insertion using NGS analyses. Cells are incubated in CTS™ OpTmizer™ (ThermoFisher A3705001) with or without 50 μM spermin. Cells are then stained with CCR5 antibody (BioLegend 359105) and passed through flow cytometry column to detect the level of CCR5 expression.
The test system of experiment [2] is Arabidopsis thaliana protoplasts transformed with syz24-2.1 plasmid comprising the ECE within the GUS intron. As to the kind of experiment: GUS reporter expression in Arabidopsis thaliana protoplasts (ECE within GUS intron). In kind it is cell-based. How it is done:
Arabidopsis protoplasts were prepared as previously described (Wu F-H et al. 2009. Plant methods 5:16 doi: 10.1186/1746-4811-5-16). Plasmids syz24-2.1 and a control plasmid 5060 (constitutive GUS expression) were transformed (in the presence or without 10 μM BENZ (BZ-CAS 121749-39-1-BZ) into protoplasts (Wu et al., supra). Transfected protoplasts were washed and cultured in W5 solution with or without BENZ (BZ) in 1% bovine serum albumin-coated 15 ml tubes for 16 h at 28° C. to allow expression of the transfected DNA. The GUS expression system enables detection of a functional β-glucuronidase when protoplasts expressing the gene are incubated with the enzyme substrate 5-bromo-4-chloro-3-indolyl glucuronide (X-Glu), where the product of the reaction is a clear blue color. As described hereinabove, the expression system of the invention was introduced into an intron within the GUS encoding gene. […] The following assays were designed: • 1. Non transformed protoplasts • 2. Non transformed protoplasts exposed to 10 μM BENZ • 3. Non transformed protoplasts exposed to 100 μM BENZ • 4. Protoplast transformed with plasmid syz24-2.1 without exposure to BENZ • 5. Protoplast transformed with plasmid syz24-2.1 exposed to 10 μM BENZ • 6. Protoplast transformed with plasmid syz24-2.1 exposed to 100 μM BENZ • 7. Protoplast transformed with plasmid 5060 without exposure to BENZ • 8. Protoplast transformed with plasmid 5060 exposed to 10 μM BENZ • 9. Protoplast transformed with plasmid 5060 exposed to 100 μM BENZ In all assays in which the transformed protoplasts were exposed to BENZ, the transformation and subsequent washes were performed in the presence of the corresponding BENZ concentration (10 or 100 μM). After the last wash, the protoplasts were suspended in W5 buffer containing 10 μM or 100 μM BENZ and placed at 28° C. for 48 h. Thereafter the protoplasts were collected (by spinning at 100gX3 minutes). Protoplasts were resuspended in 0.5 ml 0.5M monitol+0.5 mg X-glucuronide (sigma B5285) and incubated at 37° C. 24 h.

The subject of experiment [3] is Nicotiana benthamiana leaf discs transformed with Pzp 1503/syz24-1.2 plasmid (GUS + the mutated ECE). As to the kind of experiment: GUS reporter expression in tobacco leaf discs (β-glucuronidase assay). In kind it is cell-based. As to conditions: MS buffer with 50 μM BENZ. Here is the method: Protocol 5 ml Agrobacterium starter (transfected with the relevant plasmids) were grown with the selection antibiotics at 28° C. with agitation of 350 rpm overnight. Thereafter, the solution was centrifuged for 5 min. at 4500 g. The pellet was resuspended in 10 ml Induction Medium supplemented with the relevant antibiotic and 100 μM Acetosyringone, incubated for 5-6 hours at 28° C., 250 rpm and then centrifuged for 5 min at 4500 g. The bacteria were resuspended in 10 ml Infiltration Medium supplemented with 200 μM Acetosyringone (1M in DMSO). The bacteria density is measured at 660 nm to obtain OD660=1.
Leaf discs were cut from Nicotiana Benthamiana plants and put in 24 wells with 400 μl of the relevant Agrobacterium with or without 50 μM BENZ. Vacuum was applied for 8 min and then slowly released, followed by additional vacuum cycle of 1 min and slow release and incubation for 10 min. The leaf discs were then separated from the Agrobacterium suspension and resuspended with MS buffer with or without 50 μM BENZ and incubated at 24° C. for three days. At the end of the incubation, the leaf discs were subjected to β-glucuronidase (GUS) assay.
β-Glucuronidase (GUS) Assay
• 1. […]

Experiment [4] relates to F293 cells transfected with the ECE-CAS9 plasmid. As to the kind of experiment: CAS activity in F293 cells transfected with ECE-CAS9 plasmid (Bpu10I cut/uncut ratio). In kind it is cell-based. As to conditions: DMEM supplemented with 10 μM BENZ, 48 hours. The text has this:
In one example, the ECE regulatory element of the present invention can be used to determine the expression level of the CRISPR-CAS9 complex (Gene Bank Accession No. KF264451) allowing timely editing of the genome. The viral (Px330) CRISPER CAS system can be acquired from “addgene” (plasmid #117919). The ECE regulatory element is synthesized with the sequence of the BseRI restriction site to produce an expression system of the invention having SEQ ID NO:51, and then to be inserted into the 117919 plasmid (SEQ ID NO:57). The ECE sequence is located within the artificial hybrid intron, known to increase transcription levels.
Plasmid was transfected in to F293 cells by Lipofectamine 3000 (L3000015 ThermoFisher) according to the manufacturer instructions. Immediately following transfection cells were incubated with either DMEM or DMEM supplemented with BENZ for 48 hours.
The sgRNA is designed to target the cyclin D1 gene (Accession BC023620) at the Bpu 10I restriction site (sgRNA=[…], SEQ ID NO:60). The efficiency of the CRISPER assay is determined by extracting the DNA, digesting it with Bpu10I and measuring, by bioanalyser, the ratio between the cut and uncut fragments, uncut indicates an efficient CAS activity.

The subject of experiment [5] is transgenic poplar trees with ECE in the CCR gene. Description: Lignin content in transgenic poplar carrying ECE-CCR. In kind it is in vivo, Populus tremula×Populus alba. Conditions: transgenic trees upon completion of BENZ treatment cycle. The text has this:
Populus trichocarpa cv. Trichobel CCR cDNA (Accession No. AJ224986) is cloned in to pTA vector using standard PCR reaction. ECE assembled by Gibson in to the middle CCR gene by introducing artificial intron. The resulted sequence is cloned under a tandem repeat of the CaMV 35S constitutive promoter and is transferred into the binary vector pBIG-HYG conferring resistance to hygromycin. Binary vector is transferred into Agrobacterium strain LB4404.
Poplar (Populus tremula×Populus alba) plants are transformed by Agrobacterium as described (Leplé et al. 1992, Plant Cell Rep. 11:137-141.) Transformants are selected by hygromycin resistance. Transformation is confirmed by molecular analysis of the insertions.
Four-to-five-month old greenhouse-grown trees are sprayed daily with 100 μM BENZ during a period of 6 months. […]
RT-PCR analysis of CCR is performed at different stages of the growth and development of the trees. […] Quantification of cDNA molecules is performed in five replicates by qPCR machine.
Lignin content is analyzed in samples from different stages of the growth and development of the trees according to Dence, 1992 (Lignin determination. In: Dence C, Lin S, editors. Methods in Lignin Chemistry. Berlin: Springer-Verlag; 1992. pp. 33-61). […] Lignin is then extracted with CH2Cl2, dried over Na2SO4, evaporated under reduced pressure at 40° C., re-dissolved in 1 mL of CH2Cl2 and analyzed by GC-MS

Experiment [6] concerns SBEIIb with ECE in transgenic rice. As to the kind of experiment: SBEIIb expression and starch content in transgenic rice carrying ECE-SBEIIb. As to conditions: rice grains 10 days post anthesis, activated by BENZ. In kind it is in vivo, rice (Nipponbare). The text has this:
High levels of the starch branching IIb gene in rice (SBEIIb, GQ150904.1) are typically linked to lower amylose content. Downregulating the activity of SBEIIb can lead to rice seeds with higher amylose content. The SBEIIb coding sequence is cloned from Nipponbare cDNA into pTA vector using the standard PCR reaction. The resulted clone is manipulated to carry the ECE regulatory element. The resulted altered fragment is closed into rice-transformation vector containing the wHMWG promoter and NOS terminator. The vector also contains the hygromycin resistance gene under the control of the CaMV 35S promoter. The vector is transferred into Agrobacterium tumefaciens AGL1. […]
RNA is extracted from rice grains, 10 days post anthesis. cDNA is synthesized from 5 μg of total RNA using cDNA syntheses kit. Quantitative real-time PCR is conducted on 100 ng of cDNA using the SBEIIb primers.
Protein analysis is conducted on soluble native proteins extracted from rice grains obtained 10 days post anthesis. […] Signals are recorded by automatic film processor.
Mature panicles are analyzed for their starch content. Fully developed and mature seeds are collected, weighed, dried and ground and total starch is determined using Total Starch HK Assay (Megazyme) and resistant starch is determined using Resistant Starch Assay Kit (Megazyme).

In experiment [7] the test system is hpt gene with ECE in transgenic tobacco seedlings. Description: Conditional expression of hygromycin resistance (hpt) gene with ECE in transgenic tobacco. In kind it is in vivo. Conditions: MS media versus MS+20 μM BENZ, seven days. The text has this:
Expression of selection genes is required only during early stages of plant transformation. Following the establishment of a transgenic plant, expression of the selection gene is not required. The hpt gene, conferring resistance to hygromycin, is generated by standard PCR reaction on the pBIGHYG plasmid (binary plasmid) and cloned into pTA vector. The ECE regulatory element is inserted into the hpt gene just after the its ATG start codon by standard Gibson assembly. In addition, the reporting gene GUS: B-glucuronidase is cloned into the pTA vector downstream to the hpt gene under the 35S promoter.
The vector is transferred into Agrobacterium tumefaciens EHAP105.
Tobacco genetic transformation is carried using hygromycin as for selection using a standard transformation protocol. 20 μM BENZ is added to the regeneration and selection medium to facilitate the expression of the selection gene. […] Seeds of heterozygous plants with single insert are selected.
Ten days following planting plants transformed to either MS-based media or remained on MS+20 μM BENZ media. Seven day after, RNA is extracted from transgenic plants. cDNA is synthesized from 20 μg of total RNA using cDNA syntheses kit. Quantitative real-time PCR is conducted on 100 ng of cDNA using the hygromycin-encoding gene primers.

With `NCCCNCCCCNCCCN` [spermin, spermine], in experiment [1], the CCR5 expression entry is reported as “expected to increase”.

On to `CCNCCCNCCCNCCCNCC` [BENZ, N^1,N^11-Diethylnorspermine tetrahydrochloride], for which the “β-glucuronidase activity (blue color)” value in experiment [2] (non-transformed protoplasts, 10 μM or 100 μM BENZ) is on record as “not observed”; in experiment [2] (protoplasts transformed with control plasmid 5060 (constitutive GUS), 10 μM or 100 μM BENZ), “β-glucuronidase activity irrespective of the presence of BENZ”; in experiment [2] (protoplasts transformed with syz24-2.1, W5 supplemented with 10 μM BENZ), “only when cells were incubated with W5 supplemented with 100 μM BENZ”; in experiment [2] (protoplasts transformed with syz24-2.1, W5 supplemented with 100 μM BENZ) it was “showed β-glucuronidase activity”; in experiment [3] (leaf discs transformed with Pzp 1503/syz24-1.2, three days), “showed β-glucuronidase activity”; in experiment [3] (leaf discs transformed with control plasmid (constitutive GUS)), “expressed β-glucuronidase activity”. For the same compound, the “CAS activity (increase of uncut fragments)” value in experiment [4] is given as “increase in CAS activity”. In experiment [5], the lignin levels result is “expected to be comparable to transgenic plants, and lower than wild type plants”. Besides, the “SBEIIb protein (Western blot)” value in experiment [6] is “increase in SBEIIb”. Moreover, the “expression of hygromycin-encoding gene (quantitative real-time PCR)” value in experiment [7] is given as “reduced in the transgenic seedlings when grown on MS media compared to seedling that grow on MS+20 μM BENZ”.
